Test results published in patent US20260265321A1, “PEPTIDE AND POLYPEPTIDE INHIBITING THE NF-KB SIGNALING PATHWAY” (Centre National de la Recherche Scientifique, priority 2023, published 2026).
Residues, ends and D or L forms follow the SMILES beside them.

Experiments:
[1] = target: T1, IKKα(10-667) EE homodimer (Homo sapiens, UniProt O15111, S176E/S180E); experiment: Isothermal titration calorimetry (ITC) of peptide binding to IKKα homodimer; conditions: for Kd / TΔS / ΔG / ΔH: IKKα
T1 construct: an equivalent construct of the IKKα homodimer (i.e. IKKα(10-667) S176E/S180E, named IKKα(10-667) EE hereafter); 6×His (followed by TEV site) (N, cleaved yes); made in house; host or cells: Sf21 insect cells (baculovirus)
T1 sequence (O15111 10-667 S176E/S180E): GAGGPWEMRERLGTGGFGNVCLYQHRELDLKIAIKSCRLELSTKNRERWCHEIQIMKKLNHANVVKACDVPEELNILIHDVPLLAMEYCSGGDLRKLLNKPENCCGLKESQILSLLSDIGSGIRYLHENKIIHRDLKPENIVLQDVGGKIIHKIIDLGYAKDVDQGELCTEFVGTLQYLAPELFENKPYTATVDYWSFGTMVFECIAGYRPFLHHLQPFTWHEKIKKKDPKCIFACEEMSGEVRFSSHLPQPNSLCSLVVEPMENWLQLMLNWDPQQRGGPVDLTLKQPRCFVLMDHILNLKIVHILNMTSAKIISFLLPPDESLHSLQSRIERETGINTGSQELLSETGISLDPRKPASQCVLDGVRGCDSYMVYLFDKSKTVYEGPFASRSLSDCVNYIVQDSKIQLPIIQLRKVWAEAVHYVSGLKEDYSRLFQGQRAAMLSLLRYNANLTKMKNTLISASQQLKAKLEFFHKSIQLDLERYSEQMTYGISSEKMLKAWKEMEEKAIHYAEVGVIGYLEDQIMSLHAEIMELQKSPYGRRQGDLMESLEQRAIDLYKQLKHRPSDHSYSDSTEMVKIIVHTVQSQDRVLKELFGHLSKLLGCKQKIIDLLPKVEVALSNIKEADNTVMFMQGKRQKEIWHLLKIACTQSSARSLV
Protocol: All experiments were performed in ITC buffer (20 mM HEPES pH 8.0, 150 mM NaCl, 1 mM TCEP) unless otherwise stated. Purified IKKα(10-667) EE and IKKβ(1-669) EE protein samples were dialyzed overnight against ITC buffer at 4° C. Just before the ITC experiments, IKKα or IKKβ samples were concentrated, incubated at room temperature for 30 minutes and centrifuged at 11000 g to remove eventual precipitate. The final concentrations of IKKα and IKKβ in the sample cell varied between 22 and 50 μM depending on the measurement. HPLC purified synthetic peptides (IκBα pep) comprising residues 297-317 of IκBα were further desalted using a Nap5 (GE Healthcare, #17-0853-01) column equilibrated in milliQ water, lyophilized and then resuspended in ITC buffer. The concentration of peptides in the syringe varied between 220 and 975 μM depending on the measurement.
All ITC measurements were performed using a PEAQ-ITC MALVERN instrument. The titration parameters were set as following: temperature 25° C., reference power 10 μcal/s, feedback=high, stirring speed 750 RPM, initial delay 60 s, first injection 0.4 μl in 0.8 s and the remaining 19 injections were 2 μL in 4 s with 120 s of spacing. The data were fitted to a 1:1 binding model. All data were processed using NITPIC software and global fitting of two datasets was carried out using SEDPHAD.
To evaluate binding affinities, isothermal titration calorimetry (ITC) experiments were performed using a synthetic peptide that comprises the YDDφXφ motif plus the N-terminal acidic patch (residues 297-317, named IκBα pep hereafter) and purified IKKβ(1-669) EE homodimer or an equivalent construct of the IKKα homodimer (i.e. IKKα(10-667) S176E/S180E, named IKKα(10-667) EE hereafter). […] ITC analyses on the IKKα/β heterodimer were prevented by strong aggregation propensity at the concentrations required for these experiments.
All ITC experiments were performed at 25° C. The data were fitted to a 1:1 binding model. N refers to the binding stoichiometry of IKKα/β: pep, meaning that approximately half of total IKKα/β concentration binds pep ligand in agreement with the dimer form of IKKα/β being binding competent. The values for the IKKα interaction with IRF7 pep should be regarded as estimates due to low affinity and weakly exothermic binding, and therefore high experimental error and fitting uncertainty. All data were processed using NITPIC software and global fitting of two datasets was carried out using SEDPHAD.

[2] = target: T2, 6×His-IKKβ(1-669) EE (Homo sapiens, UniProt O14920, S177E/S181E); experiment: MBP-pulldown of recombinant IKKβ by MBP-peptide fusions; format: binding; conditions: 0.3 μM IKKβ, Western blot
T2 construct: a nearly full-length (residues 1-669) and constitutively active (S177E/S181E) mutant construct of human IKKβ; made in house; host or cells: Sf21 insect cells (baculovirus)
T2 sequence (O14920 1-669 S177E/S181E): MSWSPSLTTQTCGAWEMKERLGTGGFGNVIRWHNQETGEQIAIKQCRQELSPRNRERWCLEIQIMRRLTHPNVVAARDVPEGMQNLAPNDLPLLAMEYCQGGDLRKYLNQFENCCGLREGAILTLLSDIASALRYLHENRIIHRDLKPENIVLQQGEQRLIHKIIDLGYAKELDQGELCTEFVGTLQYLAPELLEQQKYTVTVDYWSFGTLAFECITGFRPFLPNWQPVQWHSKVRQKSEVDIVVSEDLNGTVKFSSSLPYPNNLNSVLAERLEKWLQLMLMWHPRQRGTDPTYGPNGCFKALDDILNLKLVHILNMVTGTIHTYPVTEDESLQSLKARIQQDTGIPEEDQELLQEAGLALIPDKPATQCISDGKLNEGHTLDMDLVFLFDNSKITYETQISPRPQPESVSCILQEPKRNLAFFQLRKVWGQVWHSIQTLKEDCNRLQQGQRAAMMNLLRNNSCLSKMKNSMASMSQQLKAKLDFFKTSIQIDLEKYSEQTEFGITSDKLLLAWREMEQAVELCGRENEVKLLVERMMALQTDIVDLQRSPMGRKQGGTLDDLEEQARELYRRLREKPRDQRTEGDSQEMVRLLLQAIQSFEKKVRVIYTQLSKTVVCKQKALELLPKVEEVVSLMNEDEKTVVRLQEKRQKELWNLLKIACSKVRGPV
Protocol: Experiments were performed in PD buffer (20 mM Tris pH 8.0, 150 mM NaCl, 2 mM DTT). For each experiment, 10 μl of amylose resin (dry bead volume) coupled to MBP-fusion constructs were incubated with […] of purified 6×His-IKKα(10-667) EE and 6×His-IKKβ (1-669) EE constructs adjusted at a concentration of 0.3 μM for 2 hours at 4° C. After two quick washing steps with PD buffer, complexes were eluted by incubation with 20 μl of the same buffer supplemented with 20 mM maltose for 15 minutes at 4° C. After mild centrifugation, supernatants were recovered and migrated onto two separate 10% SDS-PAGE gels. One gel was used for Western blot analysis to detect His-IKKα or His-IKKβ using and anti-6×His antibody (Sigma, #SAB4301134), the other for Coomassie staining to detect MBP-fusion proteins. Quantification of band intensity was done using the Image J software.

SMILES	N (binding stoichiometry of IKKα: pep) ([1]; 25° C., 1:1 binding model)	Kd ([1]; 25° C., 1:1 binding model) [µM]	TΔS ([1]; 25° C.) [kcal/mol]	ΔG ([1]; 25° C.) [kcal/mol]	ΔH ([1]; 25° C.) [kcal/mol]	enhancement of affinity to IKKα relative to IκBα pep wt [1] [fold]	Kd [1] [µM]	interaction with IKKβ by pulldown [2]
CC(C)C[C@H](NC(=O)[C@@H](NC(=O)[C@H](CC(C)C)NC(=O)[C@H](CCCNC(=N)N)NC(=O)[C@H](CCC(N)=O)NC(=O)CNC(=O)CNC(=O)[C@H](Cc1ccccc1)NC(=O)[C@@H](NC(=O)[C@H](CS)NC(=O)[C@H](CC(=O)O)NC(=O)[C@H](CC(=O)O)NC(=O)[C@H](Cc1ccc(O)cc1)NC(=O)[C@@H]1CCCN1C(=O)[C@H](CC(C)C)NC(=O)[C@H](CCC(=O)O)NC(=O)[C@H](CC(=O)O)NC(=O)[C@H](CCC(=O)O)NC(=O)[C@@H](NC(=O)[C@H](Cc1ccccc1)NC(=O)[C@@H](N)CCC(=O)O)[C@@H](C)O)C(C)C)[C@@H](C)O)C(=O)O [IκBα pep] (H-EFTEDELPYDDCVFGGQRLTL-OH; N-terminus and C-terminus assumed)	0.62	9	-8.35	-6.88	-15.2	–	–	–
CC(C)C[C@H](NC(=O)[C@@H](NC(=O)[C@H](CC(C)C)NC(=O)[C@H](CCCNC(=N)N)NC(=O)[C@H](CCC(N)=O)NC(=O)CNC(=O)CNC(=O)[C@H](Cc1ccccc1)NC(=O)[C@@H](NC(=O)[C@H](CC(C)C)NC(=O)[C@H](CC(=O)O)NC(=O)[C@H](CC(=O)O)NC(=O)[C@H](Cc1ccc(O)cc1)NC(=O)[C@@H]1CCCN1C(=O)[C@H](CC(C)C)NC(=O)[C@H](CCC(=O)O)NC(=O)[C@H](CC(=O)O)NC(=O)[C@H](CCC(=O)O)NC(=O)[C@@H](NC(=O)[C@H](Cc1ccccc1)NC(=O)[C@@H](N)CCC(=O)O)[C@@H](C)O)C(C)C)[C@@H](C)O)C(=O)O [IkBα pep C308L] (H-EFTEDELPYDDLVFGGQRLTL-OH; N-terminus and C-terminus assumed)	0.65	–	-4.71	-8.80	-13.5	25	0.35	clearly enhance binding to IKKβ
